In patent US9737260B2, “Methods for determining total body skeletal muscle mass” (GLAXOSMITHKLINE LLC, priority 2011, dated 2017):

What was measured:
[1] = Dexamethasone-induced skeletal muscle atrophy in rats: lean body mass by QMR and creatine pool size by D3-creatine dilution; details: 22 week-old rats, once daily subcutaneous for 2 weeks; P<0.001 vs vehicle (459±45 g)
[2] = rat, oral dose of 0.475 mg D3-creatine per rat

Row | Compound | lean body mass (LBM) [1] [g] | absorption of oral dose [2] | D3-creatine tracer dose available to equilibrate with the body creatine pool ([2]; minimal urinary spillage) [%]
1 | C[C@@H]1C[C@H]2[C@@H]3CCC4=CC(=O)C=C[C@]4(C)[C@@]3(F)[C@@H](O)C[C@]2(C)[C@@]1(O)C(=O)CO [dexamethasone] | 353 ± 32 |  | 
2 | [2H]C([2H])([2H])N(CC(=O)O)C(=N)N [D3-creatine] |  | rapidly and completely absorbed | > 99
